{"source": "patent US11141391B2", "about": "“Biomarkers for risk assessment, diagnosis and target microbiome and intestinal homeostasis for prevention and treatment of amyotrophic lateral sclerosis” (Rush University Medical Center, priority 2014, dated 2021)", "key": {"ALS patients": {"tested_on": "ALS patients", "conditions": "cited from earlier work"}, "[1]": {"tested_on": "G93A amyotrophic lateral sclerosis model mice", "experiment": "Butyrate treated mice model: oral sodium butyrate in drinking water, body weight and survival", "type": "in vivo, mouse", "description": "Nine G93A mice were divided into a […] (n=4) and a butyrate group (n=5). Butyrate mice started to drink 2% sodium butyrate in the drinking water bottle from age 63 days, without treatment mice drank regular water mice. Without treatment mice died on day 127, 133, 143, 155 separately.\nMice were divided into control and butyrate group. Butyrate group mice were given 2% sodium butyrate (Sigma, St. Louis, Mo.) water ad libitum from age 63 days. The untreated control group was maintained on tap water throughout the experiment. Without treatment mice died on day 127, 133, 143, 155 separately."}}, "note": "“Also recorded” adds a separate entry of the source.", "data": [{"smiles": "Nc1nc2ccc(OC(F)(F)F)cc2s1", "note": "[Riluzole]", "values": [{"measurement": "patient life span", "setting": "ALS patients; FDA approved treatment", "value": "extends patient life span for only a few months"}, {"measurement": "relief of symptoms", "setting": "ALS patients", "value": "does not relieve symptoms"}]}, {"smiles": "CCCC(=O)[O-].[Na+]", "note": "[sodium butyrate]", "values": [{"measurement": "body weight loss", "setting": "[1]; 2% sodium butyrate in drinking water ad libitum from age 63 days, n=5, vs untreated G93A mice n=4 (FIG. 4A)", "value": "prevents body weight loss"}, {"measurement": "additional survival time of butyrate mice", "setting": "[1]; 2% sodium butyrate in drinking water from age 63 days, relative to untreated mice that died on day 127-155", "value": "survived at least one additional month or longer"}, {"measurement": "survival", "setting": "[1]; 2% sodium butyrate in drinking water from age 63 days, untreated mice died on day 127, 133, 143, 155 (FIG. 4B)", "value": "extends survival time; also recorded: All the butyrate mice survived"}]}]}
